Results as given in US11760733B2, “Small molecule regulators of mitochondrial fusion and methods of use thereof” (Washington University, priority 2017, dated 2023).
“Also recorded” adds a separate entry of the source.

Test system: not listed separately
Experiment: Solubility of library compounds in DMSO stock
Format: physicochemical
Details: stock concentration of 10 mM in DMSO
Description: A pharmacophore model was generated based on the interactions of HR1 and HR2 domains in the calculated structural model of Mfn2 in the closed conformation. The key features included hydrophobic interactions involving Mfn2 HR1: Val372 and Met376, and aromatic interactions and hydrogen bonding involving Mfn2 HR1 His380. […] A library comprising ˜14 million commercially available compounds was prepared in silico and evaluated using PHASE to fit these criteria. Top ranked hits were clustered, and filtered based on pharmacological properties using Qikprop. The top 55 (see TABLE 4) commercially available small molecules conforming to the model were selected for functional screening and purchased in 1 mg aliquots. Each compound was dissolved to a stock concentration of 10 mM in DMSO and applied to Mfn2 null MEFs overnight at a final concentration of […]. Eleven of the library members were not soluble in DMSO at the required concentration. The 44 fully soluble compounds were screened in groups of 6 at a time for cytotoxicity (calcein AM/ethidium homodimer staining; ThermoFisher LIVE/DEAD Assay cat # L3224) and fusogenicity (increase in mitochondrial aspect ratio; MitoTracker Orange staining) compared to cells treated overnight with […] of the parent HR1 367-384 mitofusin agonist peptide (positive control) or vehicle (DMSO). Images were acquired by confocal microscopy. Each compound was scored for fusogenicity (see e.g., FIG. 24A) and % cell death (see e.g., FIG. 24B). Pharmacophore model fit generally correlated with actual fusogenic activity (Pearson correlation coefficient r=0.214; see e.g., FIG. 24A, inset; TABLE 4).

Row | Solubility in DMSO | Compound
1 | Insoluble | Cc1ccc(C(=O)C(C)Sc2nnc3c(=O)n(-c4ccc(Br)cc4)ccn23)cc1C (stereo not drawn) [7-(4-bromophenyl)-3-{[1-(3,4-dimethylphenyl)-1-oxopropan-2-yl]sulfanyl}-7H,8H-[1,2,4]triazolo[4,3-a]pyrazin-8-one]
2 | Insoluble | Cc1ccc(CSCCNC(=O)C2CCN(c3ccc4nnc(C(F)(F)F)n4n3)CC2)cc1 [N-(2-{[(4-methylphenyl)methyl]sulfanyl}ethyl)-1-[3-(trifluoromethyl)-[1,2,4]triazolo[4,3-b]pyridazin-6-yl]piperidine-4-carboxamide]
3 | Insoluble | Cc1ccc(SC(C)C(=O)Nc2ccc(NS(=O)(=O)c3ccc4c(c3)OCCCO4)cc2)cc1 (stereo not drawn) [N-[4-(3,4-dihydro-2H-1,5-benzodioxepine-7-sulfonamido)phenyl]-2-[(4-methylphenyl)sulfanyl]propanamide]
4 | Insoluble | COc1cc(Cl)c(C)cc1N1C(=O)[C@@H]2C[C@H]1CN2Cc1cccn1-c1ncccn1 [(1S,4S)-2-(4-chloro-2-methoxy-5-methylphenyl)-5-{[1-(pyrimidin-2-yl)-1H-pyrrol-2-yl]methyl}-2,5-diazabicyclo[2.2.1]heptan-3-one]
5 | Insoluble | CC(Sc1nc(C2CC2)nc2c1c(=O)[nH]c(=O)n2C1CC1)C(=O)NCC1CCCCC1 (stereo not drawn) [N-(cyclohexylmethyl)-2-({2,8-dicyclopropyl-5,7-dioxo-5H,6H,7H,8H-pyrimido[4,5-d][1,3]diazin-4-yl}sulfanyl)propanamide]
6 | Insoluble | Cc1ccc(C(=O)C(C)Sc2nnc3c(=O)n(-c4ccccc4)ccn23)cc1C (stereo not drawn) [3-{[1-(3,4-dimethylphenyl)-1-oxopropan-2-yl]sulfanyl}-7-phenyl-7H,8H-[1,2,4]triazolo[4,3-a]pyrazin-8-one]
7 | Insoluble | CC(=O)NC12CC3CC(C1)CC(C(=O)NCCSCc1ccc(C)cc1)(C3)C2 [3-acetamido-N-(2-{[(4-methylphenyl)methyl]sulfanyl}ethyl)adamantane-1-carboxamide]
8 | Insoluble | CCc1nnc(SC(CC)C(=O)N(CC)c2cccc(C)c2)c2cc3occc3n12 (stereo not drawn) [N-ethyl-2-({12-ethyl-5-oxa-1,10,11-triazatricyclo[6.4.0.0^2,^6]dodeca-2(6),3,7,9,11-pentaen-9-yl}sulfanyl)-N-(3-methylphenyl)butanamide]

Test system: Mfn2 null MEFs
Experiment: Mitochondrial elongation (aspect ratio) fusogenicity assay
Format: cell-based, mouse
Details: not given
Description: A cultured murine embryonic fibroblast assay system was used in which mitochondrial elongation (an increase in aspect ratio) reflects enhanced mitochondrial fusion.
A pharmacophore model was generated based on the interactions of HR1 and HR2 domains in the calculated structural model of Mfn2 in the closed conformation. The key features included hydrophobic interactions involving Mfn2 HR1: Val372 and Met376, and aromatic interactions and hydrogen bonding involving Mfn2 HR1 His380. […] A library comprising ˜14 million commercially available compounds was prepared in silico and evaluated using PHASE to fit these criteria. Top ranked hits were clustered, and filtered based on pharmacological properties using Qikprop. The top 55 (see TABLE 4) commercially available small molecules conforming to the model were selected for functional screening and purchased in 1 mg aliquots. Each compound was dissolved to a stock concentration of 10 mM in DMSO and applied to Mfn2 null MEFs overnight at a final concentration of 1 mM. […] Images were acquired by confocal microscopy. Each compound was scored for fusogenicity (see e.g., FIG. 24A) and % cell death (see e.g., FIG. 24B).
Wild-type MEFs were prepared from E10.5 c57/bl6 mouse embryos. […] MEFs were subcultured in DMEM (4.5 g/L glucose) plus 10% fetal bovine serum, 1× nonessential amino acids, 2 mM L-glutamine, 100U/ml penicillin and 100 ug/ml streptomycin.
Cells were excited with 408 nm (Hoechst), […] (MitoTracker Green and Calcein AM, GFP), or 637 nm (TMRE, MitoTracker Orange, Ethidium homodimer-1, and AF594-Dextran) laser diodes. For mitochondrial elongation studies mitochondrial aspect ratio (long axis/short axis) was calculated using automated edge detection and Image J software. Mitochondrial depolarization was calculated as % of green mitochondria visualized on MitoTracker Green and TMRE merged images, expressed as green/(green+yellow mitochondria)×100.

Row | Compound | fusogenic activity (mitochondrial elongation), in words
9 | O=C1CC(SCCc2nc3ccccc3[nH]2)C(=O)N1c1cccc(F)c1 (stereo not drawn) [D9] | no true fusogenic activity; also recorded: failed validation in the secondary screen

Same assay, conditions: Mus musculus; read-out: % long compare to B

Row | Compound | Emax [%]
10 | Cc1ccccc1-n1c(SCC(=O)Nc2sc3c(c2C(N)=O)CCC3)nnc1-c1ccncc1 [1-H1, 2-(2-{[4-(2-methylphenyl)-5-(pyridin-4-yl)-4H-1,2,4-triazol-3-yl]sulfanyl}acetamido)-4H,5H,6H-cyclopenta[b]thiophene-3-carboxamide] | -3
11 | NC(=O)c1c(NC(=O)CSc2nnc3n2CCCCC3)sc2c1CCCC2 [1-G10, 2-(2-{5H,6H,7H,8H,9H-[1,2,4]triazolo[4,3-a]azepin-3-ylsulfanyl}acetamido)-4,5,6,7-tetrahydro-1-benzothiophene-3-carboxamide] | -3
12 | NC(=O)c1c(NC(=O)CSc2nnc(C3CC3)n2C2CC2)sc2c1CCCC2 [2-A2, 2-{2-[(dicyclopropyl-4H-1,2,4-triazol-3-yl)sulfanyl]acetamido}-4,5,6,7-tetrahydro-1-benzothiophene-3-carboxamide] | 4
13 | CCn1c(SC(C)C(=O)Nc2sc3c(c2C(N)=O)CCC3)nnc1-c1ccoc1C (stereo not drawn) [1-A6, 2-(2-{[4-ethyl-5-(2-methylfuran-3-yl)-4H-1,2,4-triazol-3-yl]sulfanyl}propanamido)-4H,5H,6H-cyclopenta[b]thiophene-3-carboxamide] | -31
14 | CC(c1cccc([N+](=O)[O-])c1)N(C)CC(=O)NCCSCc1ccccc1C#N (stereo not drawn) [B05, N-(2-{[(2-cyanophenyl)methyl]sulfanyl}ethyl)-2-{methyl[1-(3-nitrophenyl)ethyl]amino}acetamide] | 15
15 | CC1CCCCC1NC(=O)NCCSCc1ccccc1 (stereo not drawn) [A10, 1-[2-(benzylsulfanyl)ethyl]-3-(2-methylcyclohexyl)urea] | 72
16 | NC(=O)c1c(NC(=O)CSc2nnc(-c3cccnc3)n2-c2ccccc2)sc2c1CCCC2 [1-G3, 2-(2-{[4-phenyl-5-(pyridin-3-yl)-4H-1,2,4-triazol-3-yl]sulfanyl}acetamido)-4,5,6,7-tetrahydro-1-benzothiophene-3-carboxamide] | 4
17 | Cc1occc1-c1nnc(SCC(=O)Nc2sc3c(c2C(N)=O)CCC3)n1-c1ccccc1 [1-D10, 2-(2-{[5-(2-methylfuran-3-yl)-4-phenyl-4H-1,2,4-triazol-3-yl]sulfanyl}acetamido)-4H,5H,6H-cyclopenta[b]thiophene-3-carboxamide] | 17
18 | Cn1c(SCC(=O)Nc2sc3c(c2C(N)=O)CCC3)nnc1-c1ccc(Cl)cc1 [1-H2, 2-(2-{[5-(4-chlorophenyl)-4-methyl-4H-1,2,4-triazol-3-yl]sulfanyl}acetamido)-4H,5H,6H-cyclopenta[b]thiophene-3-carboxamide] | 0
19 | Cc1cccc(NC(=O)CSCC(=O)N(Cc2ccc(N(C)C)cc2)C(C)C)c1 [B12, N-{[4-(dimethylamino)phenyl]methyl}-2-({[(3-methyl-phenyl)carbamoyl]methyl}sulfanyl)-N-(propan-2-yl)acetamide] | 26
20 | COCCn1c(SC(C)C(=O)Nc2sc3c(c2C(N)=O)CCC3)nnc1-c1ccncc1 (stereo not drawn) [1-B12, 2-(2-{[4-(2-methoxyethyl)-5-(pyridin-4-yl)-4H-1,2,4-triazol-3-yl]sulfanyl}propanamido)-4H,5H,6H-cyclopenta[b]thiophene-3-carboxamide] | -1
21 | Cc1ccc(-n2c(C)nnc2SCC(=O)Nc2sc3c(c2C(N)=O)CCCC3)cc1 [1-D3, 2-(2-{[5-methyl-4-(4-methylphenyl)-4H-1,2,4-triazol-3-yl]sulfanyl}acetamido)-4,5,6,7-tetrahydro-1-benzothiophene-3-carboxamide] | 1
22 | CCn1c(SCC(=O)Nc2sc3c(c2C(N)=O)CCC3)nnc1-c1ccc(Cl)cc1 [1-A1, 2-(2-{[5-(4-chlorophenyl)-4-ethyl-4H-1,2,4-triazol-3-yl]sulfanyl}acetamido)-4H,5H,6H-cyclopenta[b]thiophene-3-carboxamide] | 11
23 | NC(=O)c1c(NC(=O)CSc2nnc(-c3ccccc3F)n2C2CC2)sc2c1CCC2 [1-A2, 2-(2-{[4-cyclopropyl-5-(2-fluorophenyl)-4H-1,2,4-triazol-3-yl]sulfanyl}acetamido)-4H,5H,6H-cyclopenta[b]thiophene-3-carboxamide] | -23
24 | Cc1ccccc1-n1c(SCC(=O)Nc2sc3c(c2C(N)=O)CCCC3)nnc1-c1cccnc1 [1-E12, 2-(2-{[4-(2-methylphenyl)-5-(pyridin-3-yl)-4H-1,2,4-triazol-3-yl]sulfanyl}acetamido)-4,5,6,7-tetrahydro-1-benzothiophene-3-carboxamide] | -3
25 | O=C(Nc1cc(CSCCOC(=O)C2C3CCCCC32)ccn1)C1C2CCCCC21 (stereo not drawn) [A12, 2-{[(2-{bicyclo[4.1.0]heptane-7-amido}pyridin-4-yl)methyl]sulfanyl}ethyl bicyclo[4.1.0]heptane-7-carboxylate] | 31
26 | CC1CCc2c(sc(NC(=O)CSc3nnc(C4CC4)n3-c3ccccc3)c2C(N)=O)C1 (stereo not drawn) [1-D5, 2-{2-[(5-cyclopropyl-4-phenyl-4H-1,2,4-triazol-3-yl)sulfanyl]acetamido}-6-methyl-4,5,6,7-tetrahydro-1-benzothiophene-3-carboxamide] | 2

Same assay, conditions: rank by aspect ratio among 44 soluble compounds

Row | Compound | Fusogenicity Rank
27 | CC(c1cccc([N+](=O)[O-])c1)N(C)CC(=O)NCCSCc1ccccc1C#N (stereo not drawn) [drawing 250] | 16
